Measured values reported in PMC5471438, “Linaclotide activates guanylate cyclase‐C/cGMP/protein kinase‐II‐dependent trafficking of CFTR in the intestine” (Physiological Reports, 2017).
“Also recorded” adds a separate entry of the source. Where no end group is shown, it is not given here.

Tests used:
T84 cells = settings: ref Forte et al. 1993; cited from earlier work
Caco‐2 cell line = settings: human colonic Caco‐2 cell line; ref Castro et al. 2013; Silos‐Santiago et al. 2013; cited from earlier work
Excerpt: (§1) While the increase in intracellular cGMP following ligand activation of GC‐C is well established, the efflux of cGMP from enterocytes is not well studied.

mouse colonic mucosa = settings: apical and basolateral membrane, ref Silos‐Santiago et al. 2013, Tchernychev et al. 2015; cited from earlier work
Excerpt: as §1

rat colonic mucosa = settings: apical and basolateral membrane, ref Silos‐Santiago et al. 2013, Tchernychev et al. 2015; cited from earlier work
Excerpt: as §1

[1] = test system: rat proximal colonic mucosa; test: Transepithelial short circuit current (Isc) across rat proximal colonic mucosa, Ussing chamber; set-up: species or system rat (Sprague–Dawley)
human colonic mucosa = test: Transepithelial short circuit current (Isc) across human ascending colonic mucosa, Ussing chamber; settings: human ascending colon, bumetanide 100 μmol/L basolateral, linaclotide 30 nmol/L and 1000 nmol/L; mean ± SEM (n = 6)
[2] = test system: PKGII-deficient mice intestinal tissue; set-up: method as in Vaandrager et al. 2000; settings: normal and PKGII knockout mice; ref Vaandrager et al. 2000; cited from earlier work
[3] = test system: rat proximal colonic mucosa; set-up: method as in 2 sources, one per row (each row's own in cited_ref): ref Tchernychev et al. 2015 ||| ref Vaandrager et al. 1997; settings: rat proximal colon; ref Vaandrager et al. 1997; cited from earlier work
cGKII = cGKII knockdown in C2BBe cells, Western blot; type: cell-based, human; settings: lentiviral cGKII shRNA
CFTR [4] = test: Surface biotinylation of CFTR in cGKII knockdown C2BBe cells; type: cell-based, human; settings: dibutyryl cAMP 1 mmol/L, 30 min, vs PBS
CFTR [5] = test: Surface biotinylation of CFTR in C2BBe cells; type: cell-based, human; settings: linaclotide 3.27 μmol/L 30 min
CFTR [6] = test: Surface biotinylation of CFTR in T84 cells; type: cell-based, human; settings: linaclotide 3.27 μmol/L 30 min
human intestine = test system: human intestine; set-up: method as in Kuhn et al. 1994; settings: segments of human intestine including ascending colon; ref Kuhn et al. 1994; cited from earlier work
[7] = H8 70 μmol/L pretreatment 30 min
[8] = H7 50 μmol/L pretreatment 30 min

uroguanylin (NDDCELCVNVACTGCL; ends and bridges not checked; cysteine pairing not given here; UniProt Q16661 97-112, looked up) [natural hormone, GC‐C agonist]
cGMP production via GC‐C activation (T84 cells): increase production of cGMP | cGMP efflux (Caco‐2 cell line): induce cGMP efflux | cGMP efflux (mouse colonic mucosa): induce cGMP efflux | cGMP efflux (rat colonic mucosa): induce cGMP efflux

O=C(CNc1ccc2ccccc2c1)N/N=C/c1cc(Br)c(O)c(Br)c1O [GlyH‐101]
inhibition of linaclotide‐evoked Isc by CFTR inhibitor ([1]; GlyH‐101 0.1 mmol/L apical, 20 min after linaclotide 6 nmol/L or 100 nmol/L, mean ± SEM (n = 4)): significantly attenuated the linaclotide‐evoked Isc | inhibition of linaclotide‐evoked Isc by CFTR inhibitor, low linaclotide ([1]; GlyH‐101 0.1 mmol/L, linaclotide 6 nmol/L): more profound when tissues were stimulated with lower concentrations of linaclotide; also recorded: significantly inhibited Isc induced by low concentration of linaclotide | inhibition of linaclotide‐evoked Isc by CFTR inhibitor, high linaclotide ([1]; GlyH‐101 0.1 mmol/L, linaclotide 100 nmol/L): less profound

CCCCNc1cc(C(=O)O)cc(S(N)(=O)=O)c1Oc1ccccc1 [bumetanide]
effect of NKCC1 inhibitor on linaclotide‐evoked Isc (human colonic mucosa): significantly attenuated linaclotide‐evoked Isc; also recorded: inhibits GC‐C mediated short circuit current across human colonic mucosa

C=C[C@@]1(C)CC(=O)[C@]2(O)[C@@]3(C)[C@@H](O)CCC(C)(C)[C@@H]3[C@H](OC(=O)CCN(C)C)[C@H](OC(C)=O)[C@@]2(C)O1.Cl [NKH477]
NKH477-induced transepithelial ion current ([1]; rat proximal colon, NKH477 20 μmol/L basolateral, mean ± SEM (n = 5)): robust transepithelial ion current

Nc1cc(-c2ccncc2)c[nH]c1=O [amrinone]
transepithelial ion current by PDE3 inhibitor [2]: induced transepithelial ion current in tissues from normal and PKGII knockout mice

Nc1nc2c(nc(Sc3ccc(Cl)cc3)n2[C@@H]2O[C@@H]3CO[P@@](=O)(S)O[C@H]3[C@H]2O)c(=O)[nH]1 [Rp‐8‐pCPT‐cGMPS]
inhibition of GC‐C‐mediated transepithelial ion current by PKGII antagonists [3]: significant but incomplete inhibition

cGKII shRNA: cGKII‐targeting shRNA (5′‐GGGCCTTAATAACCATTTAGT‐3′), lentiviral pLKO.1 (expressed from pLKO.1 lentiviral vector)
downregulation of cGKII (cGKII): approximately 50 ± 3%

CCCC(=O)Nc1ncnc2c1ncn2[C@@H]1O[C@@H]2COP(=O)(O)O[C@H]2[C@H]1OC(=O)CCC [Dibutyryl cAMP]
surface CFTR in cGKII‐KD cells after cAMP analog (CFTR [4]): increased apical surface CFTR | surface CFTR in cGKII‐KD cells after cAMP analog (CFTR [4]; listed as dibuturyl cAMP): able to recruit CFTR to the membrane

CNCCNS(=O)(=O)c1cccc2cnccc12.Cl.Cl [H8]
effect of PKGII inhibitor on NKH477‐evoked Isc ([1]; rat proximal colon, H8 100 μmol/L 30 min preincubation, NKH477 20 μmol/L basolateral, mean ± SEM (n = 5)): no effect on NKH477‐evoked Isc; also recorded: no effect on PKA‐mediated short circuit current induced by NKH477 | effect of PKGII inhibitor on linaclotide‐induced Isc ([1]; rat proximal colon, H8 100 μmol/L 30 min preincubation, linaclotide 100 nmol/L apical, mean ± SEM (n = 5)): significantly decreased linaclotide‐induced Isc compared to vehicle‐treated tissues; also recorded: significant, it was not complete | effect of PKG inhibitor on linaclotide‐induced apical CFTR traffic (CFTR [5]; [7]): reduced linaclotide‐induced apical CFTR traffic more potently compared to the PKA inhibitor H7; also recorded: reduce linaclotide‐induced apical trafficking of CFTR | effect of PKG inhibitor on linaclotide‐induced apical CFTR traffic (CFTR [6]; [7]): reduced linaclotide‐induced apical CFTR traffic more potently compared to the PKA inhibitor H7; also recorded: reduce linaclotide‐induced apical trafficking of CFTR | inhibition of GC‐C‐mediated transepithelial ion current by PKGII antagonists [3]: significant but incomplete inhibition

CC1CNCCN1S(=O)(=O)c1cccc2cnccc12 (centres unmarked) [H7]
effect of PKA inhibitor on linaclotide‐induced apical CFTR traffic (CFTR [5]; [8]): reduced but did not abrogate linaclotide‐induced apical CFTR traffic; also recorded: reduce linaclotide‐induced apical trafficking of CFTR; also recorded: partially abrogated linaclotide‐stimulated traffic | effect of PKA inhibitor on linaclotide‐induced apical CFTR traffic (CFTR [6]; [8]): reduced but did not abrogate linaclotide‐induced apical CFTR traffic; also recorded: reduce linaclotide‐induced apical trafficking of CFTR; also recorded: partially abrogated linaclotide‐stimulated traffic

guanylin (PGTCEICAYAACTGC; ends and bridges not checked; cysteine pairing not given here; UniProt Q02747 101-115, looked up) [natural hormone, GC‐C agonist]
cGMP production via GC‐C activation (T84 cells): increase production of cGMP | electrogenic Cl− secretion (human intestine): increase electrogenic Cl^− secretion
